Laboratory results from ChEMBL document CHEMBL1201862, “PubChem BioAssay data set” (2004).
Blank lines part the entries; values can stand above or below the molecule they belong to. Calls of active or inactive are those of the source.

Assays:
[1] = molecular target: Sphingosine 1-phosphate receptor 2 (Homo sapiens, UniProt O95136); assay: Dose Response Cell Based Assay for Agonists of the S1P2 Receptor of Purchased Analogues. [Related pubchem assays: 729, 843, 854, 736 ]; format: functional
[2] = molecular target: Sphingosine 1-phosphate receptor 3 (Homo sapiens, UniProt Q99500); assay: Dose response cell-based high throughput screening assay for antagonists of the Sphingosine 1-Phosphate Receptor 3 (S1P3). [Related pubchem assays: 1429, 485 ]; format: functional
[3] = molecular target: 5-hydroxytryptamine receptor 1E (Homo sapiens, UniProt P28566); assay: Counterscreen assay for S1P3 antagonists: Dose response cell-based high throughput screening assay to identify antagonists of the 5-Hydroxytryptamine Receptor Subtype 1E (5HT1E). [Related pubchem assays: 1429, 485 ]; format: functional
[4] = molecular target: Albumin (Bos taurus, UniProt P02769); assay: Counterscreen for inhibitors of T-cell receptor (TCR)-CD3 interaction: Fluorescence-based biochemical high throughput dose response assay to identify inhibitors of T-cell receptor (TCR)-CD3 interaction using a TAMRA-labeled BSA probe.; format: functional
[5] = molecular target: T1, Genome polyprotein (Hepatitis C virus, UniProt Q2Q167); assay: Late stage assay provider counterscreen results for the probe development effort to identify inhibitors of Hepatitis C Virus (HCV) core protein dimerization: Luminescence-based biochemical AlphaScreen assay to identify inhibitors of HCV core dimerization.; format: functional, Hepacivirus hominis
[6] = molecular target: T1, Genome polyprotein; assay: disruption of hepatitis C core self-association – biochemical, TR-FRET, dose response (AID 2159); design: species or system Hepacivirus hominis;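 note: blocks dimerization of HCV core protein measured by TR-FRET between tagged core106 pairs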
[7] = molecular target: T2, Small ubiquitin-related modifier 1 (Homo sapiens, UniProt P63165); assay: SUMO1 protein-protein binding blockers, potency – biochemical, FRET, dose response (AID 624383); format: functional; details: read-out: IC50_Mean
[8] = molecular target: Bcl-2-like protein 1 (Homo sapiens, UniProt Q07817); assay: blockers of BCLXL peptide binding – biochemical, fluorescence polarization, 1536-well, selectivity assay for MCL1 inhibitor project, dose response (AID 2218)
[9] = molecular target: T2, Small ubiquitin-related modifier 1; assay: SUMO1 protein interaction blockers, potency – biochemical, fluorescence polarization, uHTS hits, dose response (AID 624382); format: functional; details: read-out: IC50_Mean
[10] = molecular target: Induced myeloid leukemia cell differentiation protein Mcl-1 (Homo sapiens, UniProt Q07820); assay: blockers of MCL1 binding to BIM peptide – biochemical, fluorescence polarization, BIM-BH3 peptide, 1536-well, dose response (AID 2217)
[11] = molecular target: Epstein-Barr nuclear antigen 1 (Epstein-Barr virus (strain B95-8) (HHV-4) (Human herpesvirus 4), UniProt P03211); assay: inhibition of EBV nuclear antigen 1 DNA binding – biochemical, fluorescence polarization, 1536-well, dose response (AID 2381); design: species or system human gammaherpesvirus 4;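 note: fluorescence polarization of a Cy5 DNA probe bound by EBNA-1 protein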
[12] = molecular target: Lytic switch protein BZLF1 (Epstein-Barr virus (strain B95-8) (HHV-4) (Human herpesvirus 4), UniProt P03206); assay: inhibition of BZLF1 ZTA DNA binding – biochemical, fluorescence polarization, Epstein-Barr virus, 1536-well, counter-screen for EBNA-1 inhibitor project, dose response (AID 2377); design: species or system human gammaherpesvirus 4;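 note: fluorescence polarization of Cy5-labelled ZRE DNA probe bound by purified Zta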
[13] = molecular target: T3, NADPH oxidase 1 (Homo sapiens, UniProt Q9Y5S8); assay: Luminescence-based cell-based dose response assay to identify inhibitors of NADPH oxidase 1 (NOX1).; format: functional
T3 sequence (Q9Y5S8 whole entry): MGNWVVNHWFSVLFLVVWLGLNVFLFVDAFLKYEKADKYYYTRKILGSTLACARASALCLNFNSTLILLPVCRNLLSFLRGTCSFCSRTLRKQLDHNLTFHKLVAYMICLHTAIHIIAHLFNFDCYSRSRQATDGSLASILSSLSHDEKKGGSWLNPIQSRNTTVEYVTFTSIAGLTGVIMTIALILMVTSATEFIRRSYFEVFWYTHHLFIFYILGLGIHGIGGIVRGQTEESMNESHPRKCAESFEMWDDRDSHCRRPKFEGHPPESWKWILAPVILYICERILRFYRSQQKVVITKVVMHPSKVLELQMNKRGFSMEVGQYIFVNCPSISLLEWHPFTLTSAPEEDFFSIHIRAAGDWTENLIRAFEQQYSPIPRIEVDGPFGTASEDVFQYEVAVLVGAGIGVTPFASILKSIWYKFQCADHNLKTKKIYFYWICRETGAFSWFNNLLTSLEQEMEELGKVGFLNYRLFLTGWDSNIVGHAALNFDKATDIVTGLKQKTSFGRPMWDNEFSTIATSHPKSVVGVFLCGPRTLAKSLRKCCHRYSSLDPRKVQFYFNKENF

[14] = molecular target: T4, Rac GTPase-activating protein 1 (Homo sapiens, UniProt Q9H0H5); assay: blockers of MgcRacGAP-driven Rac1 GTP hydrolysis – biochemical, ADP Hunter fluorescence, primary and confirmatory, confirmation (AID 624330); format: functional
T4 sequence (Q9H0H5 whole entry): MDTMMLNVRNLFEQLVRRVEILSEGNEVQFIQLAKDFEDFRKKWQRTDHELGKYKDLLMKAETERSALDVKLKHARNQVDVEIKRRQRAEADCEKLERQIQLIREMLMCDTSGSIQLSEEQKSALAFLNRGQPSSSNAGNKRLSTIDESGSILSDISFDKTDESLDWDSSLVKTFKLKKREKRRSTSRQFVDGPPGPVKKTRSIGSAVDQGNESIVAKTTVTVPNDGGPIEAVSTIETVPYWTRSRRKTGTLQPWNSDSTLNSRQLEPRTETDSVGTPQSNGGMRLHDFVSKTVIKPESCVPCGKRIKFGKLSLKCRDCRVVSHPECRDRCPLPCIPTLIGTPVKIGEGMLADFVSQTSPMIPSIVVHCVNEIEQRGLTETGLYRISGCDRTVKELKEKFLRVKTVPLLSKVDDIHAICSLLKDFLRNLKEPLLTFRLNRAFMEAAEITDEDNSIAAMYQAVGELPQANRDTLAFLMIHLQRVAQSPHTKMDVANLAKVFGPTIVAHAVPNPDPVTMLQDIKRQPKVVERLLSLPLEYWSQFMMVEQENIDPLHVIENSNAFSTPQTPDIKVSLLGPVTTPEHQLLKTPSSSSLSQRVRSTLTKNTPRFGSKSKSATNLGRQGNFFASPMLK

[15] = molecular target: T3, NADPH oxidase 1; format: functional, cell-based

T1 sequence (Q2Q167 whole entry): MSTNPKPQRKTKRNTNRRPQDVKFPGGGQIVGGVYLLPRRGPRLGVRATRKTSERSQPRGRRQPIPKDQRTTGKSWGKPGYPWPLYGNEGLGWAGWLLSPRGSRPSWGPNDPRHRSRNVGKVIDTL
T2 sequence (P63165 whole entry): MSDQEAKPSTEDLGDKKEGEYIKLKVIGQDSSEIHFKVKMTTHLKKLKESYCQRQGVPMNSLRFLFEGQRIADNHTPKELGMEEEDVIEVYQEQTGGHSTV
Sequence of Lytic switch protein BZLF1 (P03206 whole entry): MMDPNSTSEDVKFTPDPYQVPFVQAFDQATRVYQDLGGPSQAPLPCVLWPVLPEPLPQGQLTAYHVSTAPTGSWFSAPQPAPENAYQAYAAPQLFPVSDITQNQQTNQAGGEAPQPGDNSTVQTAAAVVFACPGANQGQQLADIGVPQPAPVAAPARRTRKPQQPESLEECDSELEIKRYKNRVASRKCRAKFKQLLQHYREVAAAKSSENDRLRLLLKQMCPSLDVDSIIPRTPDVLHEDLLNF
Sequence of Sphingosine 1-phosphate receptor 3 (Q99500 whole entry): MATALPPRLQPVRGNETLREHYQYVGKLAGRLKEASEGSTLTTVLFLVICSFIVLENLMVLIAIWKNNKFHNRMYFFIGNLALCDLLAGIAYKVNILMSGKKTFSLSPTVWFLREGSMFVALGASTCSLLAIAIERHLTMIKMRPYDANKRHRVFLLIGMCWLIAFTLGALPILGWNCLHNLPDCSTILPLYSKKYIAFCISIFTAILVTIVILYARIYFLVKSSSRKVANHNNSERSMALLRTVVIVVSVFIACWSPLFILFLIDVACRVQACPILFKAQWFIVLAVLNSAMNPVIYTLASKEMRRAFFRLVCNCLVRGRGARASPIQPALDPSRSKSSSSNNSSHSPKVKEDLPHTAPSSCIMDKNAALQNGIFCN
Sequence of 5-hydroxytryptamine receptor 1E (P28566 whole entry): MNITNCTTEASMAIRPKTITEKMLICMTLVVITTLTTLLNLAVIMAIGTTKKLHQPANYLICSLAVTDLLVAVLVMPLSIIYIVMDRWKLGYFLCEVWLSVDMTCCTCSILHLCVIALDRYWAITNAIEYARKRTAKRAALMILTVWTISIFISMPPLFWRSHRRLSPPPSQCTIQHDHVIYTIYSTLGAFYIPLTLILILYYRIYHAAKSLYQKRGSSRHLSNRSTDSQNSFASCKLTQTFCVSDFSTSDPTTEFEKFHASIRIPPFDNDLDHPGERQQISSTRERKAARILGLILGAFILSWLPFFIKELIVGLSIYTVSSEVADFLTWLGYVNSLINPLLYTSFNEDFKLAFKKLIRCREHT
Sequence of Epstein-Barr nuclear antigen 1 (P03211 whole entry): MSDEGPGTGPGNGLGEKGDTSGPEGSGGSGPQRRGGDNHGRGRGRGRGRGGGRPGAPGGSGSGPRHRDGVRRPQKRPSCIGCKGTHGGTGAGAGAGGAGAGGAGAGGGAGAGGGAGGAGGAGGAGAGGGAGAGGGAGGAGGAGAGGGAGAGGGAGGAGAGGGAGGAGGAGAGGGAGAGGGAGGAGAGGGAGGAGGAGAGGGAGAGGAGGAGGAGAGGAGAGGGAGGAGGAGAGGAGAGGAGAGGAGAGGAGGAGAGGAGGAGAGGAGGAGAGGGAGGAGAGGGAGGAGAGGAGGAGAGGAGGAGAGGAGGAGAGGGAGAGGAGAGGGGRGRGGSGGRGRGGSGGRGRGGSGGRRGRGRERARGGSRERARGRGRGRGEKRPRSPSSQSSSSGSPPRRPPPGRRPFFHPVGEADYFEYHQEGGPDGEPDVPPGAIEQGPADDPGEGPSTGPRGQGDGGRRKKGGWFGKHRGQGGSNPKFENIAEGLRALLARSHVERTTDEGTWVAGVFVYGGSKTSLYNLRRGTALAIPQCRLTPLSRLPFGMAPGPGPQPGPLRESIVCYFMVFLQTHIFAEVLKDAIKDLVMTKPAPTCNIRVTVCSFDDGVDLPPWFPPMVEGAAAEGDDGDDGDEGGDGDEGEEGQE
Sequence of Induced myeloid leukemia cell differentiation protein Mcl-1 (Q07820 whole entry): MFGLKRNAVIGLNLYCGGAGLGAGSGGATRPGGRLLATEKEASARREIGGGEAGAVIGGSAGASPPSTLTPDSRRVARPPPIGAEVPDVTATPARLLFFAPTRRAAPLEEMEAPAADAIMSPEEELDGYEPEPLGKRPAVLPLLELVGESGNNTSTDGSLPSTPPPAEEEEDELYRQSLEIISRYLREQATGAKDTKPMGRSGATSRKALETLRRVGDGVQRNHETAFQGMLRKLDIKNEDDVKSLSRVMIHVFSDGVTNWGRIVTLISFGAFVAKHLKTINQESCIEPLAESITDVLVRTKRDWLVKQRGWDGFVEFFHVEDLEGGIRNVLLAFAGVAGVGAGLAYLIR
Sequence of Sphingosine 1-phosphate receptor 2 (O95136 whole entry): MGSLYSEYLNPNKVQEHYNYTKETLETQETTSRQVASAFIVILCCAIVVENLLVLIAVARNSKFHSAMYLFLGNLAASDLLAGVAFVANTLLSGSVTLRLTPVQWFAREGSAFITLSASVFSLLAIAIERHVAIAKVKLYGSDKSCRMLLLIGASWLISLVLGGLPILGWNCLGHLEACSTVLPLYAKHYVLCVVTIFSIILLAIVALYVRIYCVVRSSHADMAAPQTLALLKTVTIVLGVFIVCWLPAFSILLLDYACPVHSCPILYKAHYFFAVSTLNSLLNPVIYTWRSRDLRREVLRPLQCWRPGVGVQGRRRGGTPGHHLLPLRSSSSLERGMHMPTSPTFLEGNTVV
Sequence of Albumin (P02769 whole entry): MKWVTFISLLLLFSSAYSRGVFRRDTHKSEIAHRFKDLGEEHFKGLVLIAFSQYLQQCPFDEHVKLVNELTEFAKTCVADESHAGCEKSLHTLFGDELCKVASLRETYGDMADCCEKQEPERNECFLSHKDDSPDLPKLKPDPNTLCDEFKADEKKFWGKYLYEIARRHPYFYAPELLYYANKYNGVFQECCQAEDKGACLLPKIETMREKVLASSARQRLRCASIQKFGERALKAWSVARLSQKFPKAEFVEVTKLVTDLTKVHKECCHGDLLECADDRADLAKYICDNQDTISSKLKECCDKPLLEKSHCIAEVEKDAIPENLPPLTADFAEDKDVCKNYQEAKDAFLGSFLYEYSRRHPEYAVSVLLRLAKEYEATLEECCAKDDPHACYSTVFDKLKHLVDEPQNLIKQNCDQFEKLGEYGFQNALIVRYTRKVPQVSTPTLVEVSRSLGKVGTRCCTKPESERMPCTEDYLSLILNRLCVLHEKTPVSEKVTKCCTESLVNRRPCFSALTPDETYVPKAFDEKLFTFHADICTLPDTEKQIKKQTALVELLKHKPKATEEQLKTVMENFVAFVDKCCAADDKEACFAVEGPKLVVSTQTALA
Sequence of Bcl-2-like protein 1 (Q07817 whole entry): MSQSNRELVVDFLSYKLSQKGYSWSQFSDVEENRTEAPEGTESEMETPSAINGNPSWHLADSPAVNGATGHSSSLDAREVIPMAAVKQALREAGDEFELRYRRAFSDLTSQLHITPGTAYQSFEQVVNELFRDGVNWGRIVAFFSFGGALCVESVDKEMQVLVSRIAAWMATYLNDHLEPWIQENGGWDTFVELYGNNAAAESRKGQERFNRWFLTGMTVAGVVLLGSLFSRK

SMILES: CCN(CC(=O)Nc1c(F)cccc1F)C(=O)/C=C/c1ccc2ccccc2n1
IC50 [4]: > 94.1 µM (inactive) | IC50 [5]: 29.8 µM (inactive) | IC50 [6]: 16.7 µM (not active) | IC50 [7]: 2.3 µM (active) | IC50 [8]: 25.3 µM (not active) | IC50 [9]: > 66.6 µM (inactive) | IC50 [10]: 3.46 µM (active)

SMILES: CC1=CC2=NC(=O)/C(=C\c3cn(C)c4ccccc34)C(=N)N2O1
IC50 [11]: 8.61 µM (active) | IC50 [12]: > 111 µM (not active)

SMILES: c1ccc2c(c1)Nc1ccccc1S2 [PHENOTHIAZINE]
IC50 [13]: 0.349 µM (active) | IC50 [14]: 18.5 µM (active) | IC50 [15]: 0.369 µM (active)

The next lines start with the values.

EC50 [1]: > 30 µM (not active)
SMILES: Cc1cc(C(=O)CN(C)CC(=O)NC(C)C)c(C)n1Cc1ccccc1

IC50 [2]: 6.6 µM (active) | IC50 [3]: 12.1 µM (not active)
SMILES: O=C(Nc1ccccc1)C(c1ccccc1)C1CCCC1 (stereo not given)
